Structures can show the parent of a compound that is named as a salt. Where two headings read alike, the source gives them in different places.
Experiments:
[1] = test system: R155K variants (genotype 1a NS3); assay: Drug sensitivity assay: HCV replicon shuttle vector with patient NS3 amplicons, luciferase, Huh-7.5 cells; type: cell-based; details: Hepatitis C virus, Huh7.5, read-out: range of EC50 values
Text: (§1) A bicistronic HCV replicon shuttle vector (pIT2) comprising a luciferase reporter gene and an adapted Con-1 NS3/NS5B region was modified to create two unique restriction sites (Mlu I and Spe I) at NS3 codons 11 and 225 which enabled the insertion of compatible NS3 amplicons isolated from HCV-infected patient plasma samples. The first-round PCR product synthesized from the patient plasma-purified RNA (also used for generating fragments for population- and clonal-based sequencing) was used to amplify a 0.65 kbp fragment with primer pairs that respectively contain the unique MluI and SpeI restriction sites for insertion into the shuttle vector. Amplicons were ligated in the pIT2 shuttle vector and reconstituted plasmid DNA was used to generate HCV subgenomic replicon RNA transcripts (T7 RIBOMAX™ kit, Promega). […] At the end of the incubation, luciferase activity was measured with the BRIGHT-GLO™ substrate as the luminescence quantified (CPS) in each well of the culture plate reflected the amount of HCV RNA replication. […] The EC50 of mutant NS3 were compared to the baseline EC50 and used to generate fold-change values.

[2] = test system: D168 variants (genotype 1b NS3); assay: as above; type: cell-based; details: Hepatitis C virus, Huh7.5, read-out: EC50 values
Text: as §1

[3] = test system: chronic HCV genotype-1 infection; details: for VL rebound during treatment in the first 14 days of monotherapy: all dose groups
Description: (§2) The solvent was also used as the placebo.
A multiple rising dose study evaluated safety and antiviral activity in treatment-naive patients (pts) with chronic HCV genotype-1 infection as monotherapy for 14 days followed by triple combination therapy with P+R for an additional 14 days.
Plasma HCV-RNA levels were measured with Roche COBAS® TaqMan® assay (LLOQ 25 IU/m L). After day 28, at the discretion of the investigator, patients could continue to receive standard of care treatment, i.e., P+R.

[4] = test system: chronic hepatitis C genotype-1 infection; details: for Virologic rebound during the first 28 days of treatment: 240 mg qd + PegIFN/RBV
Description: as §2
A multiple rising dose study evaluated the safety and antiviral activity in P+R treatment-experienced patients (pts) with chronic hepatitis C genotype-1 infection for 28 days as combination therapy with P+R.
All patients were monitored for safety and tolerability of study drugs. The primary endpoint was a ≧2 log 10 reduction in HCV viral load (VL) from baseline at any time up to Day 28. Plasma HCV-RNA levels were measured using the Roche COBAS® TaqMan® assay (LLOQ 25 IU/mL). The treatment experienced patients in this study included P+R null responders and partial responders. After day 28, at the discretion of the investigator, patients could continue to receive standard of care treatment, i.e., P+R.

SMILES: C=C[C@@H]1C[C@]1(NC(=O)[C@@H]1C[C@H](Oc2cc(-c3csc(NC(=O)C(C)C)n3)nc3c(Br)c(OC)ccc23)CN1C(=O)[C@@H](NC(=O)OC1CCCC1)C(C)(C)C)C(=O)O [Compound (1) sodium salt]
- VL rebound during treatment in the first 14 days of monotherapy [3]: majority of patients
- VL rebound during treatment in the first 14 days of monotherapy ([3]; listed as Compound (1) (sodium salt)): majority of the patients
- VL decline achieved during the monotherapy period ([3]; all pts on active except 1 pt in the 20 mg cohort): > 2 log 10
- Discontinuation of treatment due to adverse events ([3]; during monotherapy): No pts discontinued
- Time of maximal decline of VL after starting treatment ([3]; monotherapy, typical): 2 to 4 days
- Virologic rebound during the first 28 days of treatment (patients) ([4]; 48 mg qd + PegIFN/RBV): 2/6
- Virologic rebound during the first 28 days of treatment (patients) ([4]; 120 mg qd + PegIFN/RBV): 1/7
- pts with VL<25 IU/mL at Day 28 ([4]; 240 mg qd + P+R): ⅚
- Virologic rebound during the first 28 days of treatment [4]: no rebound
- Virologic rebound during the first 28 days of treatment ([4]; listed as BI 201335): No rebound
- VL decline achieved with triple combination therapy ([4]; all pts, + P+R): > 2 log 10
- Discontinuation of treatment due to an AE ([4]; combination with P+R, AE anxiety): One subject discontinued
- VL at next visit, Day 42 ([4]; sixth pt of the 240 mg qd cohort): < 25 IU/ml

From patent US8399484B2, “Combination therapy for treating HCV infection” (priority 2008, dated 2013)
